Results taken from patent publication US7592457B2 (Korea Research Institute of Chemical Technology, priority 2004, dated 2009).
Like-named read-outs stand apart in the source and are kept apart here.

Assays:
5-HT2c = biological target: T1, 5-HT2c (Homo sapiens, UniProt P28335); experiment: Radioligand binding, 5-HT2c ([3H]Mesulergine); conditions: read-out: Binding affinity (Inhibition rate % at 10 μM) 5HT2c
T1 construct: purchased Euroscreen/BioSignal Packard Inc
T1 sequence (P28335 33-458): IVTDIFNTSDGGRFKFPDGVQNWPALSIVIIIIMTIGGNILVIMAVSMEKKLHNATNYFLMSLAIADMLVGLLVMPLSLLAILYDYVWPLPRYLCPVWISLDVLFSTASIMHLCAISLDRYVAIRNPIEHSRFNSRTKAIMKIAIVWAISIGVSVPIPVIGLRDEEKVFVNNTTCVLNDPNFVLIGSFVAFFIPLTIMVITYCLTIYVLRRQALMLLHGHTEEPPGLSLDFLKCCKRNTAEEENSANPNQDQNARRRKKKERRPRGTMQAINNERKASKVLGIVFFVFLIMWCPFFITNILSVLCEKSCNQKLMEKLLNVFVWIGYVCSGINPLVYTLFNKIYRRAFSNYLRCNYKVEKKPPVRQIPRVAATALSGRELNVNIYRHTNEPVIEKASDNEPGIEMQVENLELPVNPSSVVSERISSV
Description: (§1) Radioligand bindings were performed according to the test method provided by the supplier of receptor membrane (Euroscreen/BioSignal Packard Inc.).

D1 = D1 (Homo sapiens, UniProt P21728); experiment: Radioligand binding for selectivity, D1; conditions: read-out: Binding affinity (Inhibition rate % at 10 μM) D1
hD4.2 receptor = biological target: T2, hD4.2 receptor (Homo sapiens, UniProt P21917, DEL265-296); experiment: Radioligand binding, dopamine D4 ([3H]YM-09151-2); conditions: read-out: Binding affinity (Inhibition rate % at 10 μM) D4
T2 construct: purchased BioSignal Packard Inc., Montreal, Canada
T2 sequence (P21917 with tags, fused parts or gaps DEL265-296): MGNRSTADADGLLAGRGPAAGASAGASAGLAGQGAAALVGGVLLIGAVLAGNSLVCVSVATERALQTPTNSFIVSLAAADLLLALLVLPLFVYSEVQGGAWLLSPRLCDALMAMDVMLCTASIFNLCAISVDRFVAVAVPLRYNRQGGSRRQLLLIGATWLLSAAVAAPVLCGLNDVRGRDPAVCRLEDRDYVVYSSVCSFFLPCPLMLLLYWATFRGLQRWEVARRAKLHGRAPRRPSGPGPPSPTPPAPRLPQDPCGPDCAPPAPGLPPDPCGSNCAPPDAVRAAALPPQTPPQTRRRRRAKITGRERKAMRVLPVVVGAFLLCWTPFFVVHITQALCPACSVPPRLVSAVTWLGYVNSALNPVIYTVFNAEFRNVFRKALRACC

hD2L receptor = biological target: T3, hD2L receptor (Homo sapiens, UniProt P14416); experiment: Radioligand binding, dopamine D2 ([3H]spiperone); conditions: read-out: Binding affinity (Inhibition rate % at 10 μM) D2
T3 construct: purchased BioSignal Packard Inc., Montreal, Canada

5-HT7 = biological target: T4, 5-HT7 (Homo sapiens, UniProt P34969); experiment: Radioligand binding, 5-HT7 ([3H]LSD); conditions: read-out: Binding affinity (Inhibition rate % at 10 μM) 5HT7
T4 construct: purchased Euroscreen/BioSignal Packard Inc
Description: as §1

[1] = biological target: T5, human serotonin 5-HT6 receptor (Homo sapiens, UniProt P50406); experiment: [3H]LSD binding at cloned 5-HT6 receptors; conditions: for inhibition at 10 µM: read-out: Binding affinity (Inhibition rate % at 10 μM) 5HT6; for 5-HT6 affinity compared with known selective antagonists: in words
T5 construct: made in house; host or cells: Sf21 insect cells (pBacPAK8 baculovirus vector)

hD3 receptor = biological target: T6, hD3 receptor (Homo sapiens, UniProt P35462); experiment: Radioligand binding, dopamine D3 ([3H]spiperone); conditions: read-out: Binding affinity (Inhibition rate % at 10 μM) D3
T6 construct: purchased BioSignal Packard Inc., Montreal, Canada

5-HT2a = biological target: T7, 5-HT2a (Homo sapiens, UniProt P28223); experiment: Radioligand binding, 5-HT2a ([3H]Ketanserin); conditions: read-out: Binding affinity (Inhibition rate % at 10 μM) 5HT2a
T7 construct: purchased Euroscreen/BioSignal Packard Inc
Description: as §1

5-HT1a = biological target: T8, 5-HT1a (Homo sapiens, UniProt P08908); experiment: Radioligand binding, 5-HT1a ([3H]8-OH-DPAT); conditions: read-out: Binding affinity (Inhibition rate % at 10 μM) 5HT1a
T8 construct: purchased Euroscreen/BioSignal Packard Inc
T8 sequence (P08908 1-422): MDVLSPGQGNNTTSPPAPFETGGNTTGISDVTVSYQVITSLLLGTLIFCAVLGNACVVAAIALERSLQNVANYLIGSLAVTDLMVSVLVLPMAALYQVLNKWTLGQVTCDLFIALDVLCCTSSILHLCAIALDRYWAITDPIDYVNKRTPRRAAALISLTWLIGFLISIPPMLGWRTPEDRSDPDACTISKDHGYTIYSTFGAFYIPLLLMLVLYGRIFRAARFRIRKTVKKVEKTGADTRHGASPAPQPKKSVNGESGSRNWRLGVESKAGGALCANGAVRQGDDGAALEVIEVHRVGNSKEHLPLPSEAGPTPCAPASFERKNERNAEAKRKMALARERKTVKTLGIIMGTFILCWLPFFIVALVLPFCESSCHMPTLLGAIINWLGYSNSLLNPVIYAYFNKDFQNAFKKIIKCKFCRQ
Description: as §1

[2] = [3H]LSD 1.87 nM, cloned receptor membranes, 37° C., 60 min, read-out: IC50

Sequence of D1 (P21728 whole entry): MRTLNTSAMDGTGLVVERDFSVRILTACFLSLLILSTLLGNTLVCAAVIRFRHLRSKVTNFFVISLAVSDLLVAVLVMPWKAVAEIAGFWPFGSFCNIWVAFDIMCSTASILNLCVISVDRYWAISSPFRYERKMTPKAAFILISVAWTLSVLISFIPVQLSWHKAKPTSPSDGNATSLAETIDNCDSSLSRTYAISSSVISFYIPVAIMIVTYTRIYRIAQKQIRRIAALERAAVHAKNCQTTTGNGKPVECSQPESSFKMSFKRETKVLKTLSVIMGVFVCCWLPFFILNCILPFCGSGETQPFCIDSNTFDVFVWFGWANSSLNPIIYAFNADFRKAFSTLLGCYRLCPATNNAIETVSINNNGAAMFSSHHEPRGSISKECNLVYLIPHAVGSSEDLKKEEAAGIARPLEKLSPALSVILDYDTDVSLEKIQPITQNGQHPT
T6 sequence (P35462 whole entry): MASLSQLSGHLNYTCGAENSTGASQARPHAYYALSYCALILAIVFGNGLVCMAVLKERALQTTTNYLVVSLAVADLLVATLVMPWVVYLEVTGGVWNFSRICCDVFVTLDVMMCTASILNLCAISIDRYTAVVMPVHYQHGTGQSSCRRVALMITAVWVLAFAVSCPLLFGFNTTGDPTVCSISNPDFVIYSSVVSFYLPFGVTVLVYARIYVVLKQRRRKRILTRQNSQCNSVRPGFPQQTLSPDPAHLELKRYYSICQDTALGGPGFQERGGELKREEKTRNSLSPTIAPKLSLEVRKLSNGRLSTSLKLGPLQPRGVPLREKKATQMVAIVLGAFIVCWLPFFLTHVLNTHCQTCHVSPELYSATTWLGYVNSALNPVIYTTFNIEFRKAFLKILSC
T3 sequence (P14416 whole entry): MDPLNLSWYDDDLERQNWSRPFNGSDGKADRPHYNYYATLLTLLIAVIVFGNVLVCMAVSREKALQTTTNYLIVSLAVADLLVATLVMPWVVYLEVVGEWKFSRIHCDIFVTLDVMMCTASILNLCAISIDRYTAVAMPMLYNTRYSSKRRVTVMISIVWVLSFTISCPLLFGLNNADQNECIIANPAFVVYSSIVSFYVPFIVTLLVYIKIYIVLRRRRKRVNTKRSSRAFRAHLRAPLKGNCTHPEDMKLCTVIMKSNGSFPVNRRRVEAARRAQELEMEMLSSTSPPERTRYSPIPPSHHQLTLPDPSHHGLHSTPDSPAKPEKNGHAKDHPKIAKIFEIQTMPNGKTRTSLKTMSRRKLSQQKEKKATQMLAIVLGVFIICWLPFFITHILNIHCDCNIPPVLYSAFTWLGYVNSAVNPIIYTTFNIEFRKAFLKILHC
T7 sequence (P28223 whole entry): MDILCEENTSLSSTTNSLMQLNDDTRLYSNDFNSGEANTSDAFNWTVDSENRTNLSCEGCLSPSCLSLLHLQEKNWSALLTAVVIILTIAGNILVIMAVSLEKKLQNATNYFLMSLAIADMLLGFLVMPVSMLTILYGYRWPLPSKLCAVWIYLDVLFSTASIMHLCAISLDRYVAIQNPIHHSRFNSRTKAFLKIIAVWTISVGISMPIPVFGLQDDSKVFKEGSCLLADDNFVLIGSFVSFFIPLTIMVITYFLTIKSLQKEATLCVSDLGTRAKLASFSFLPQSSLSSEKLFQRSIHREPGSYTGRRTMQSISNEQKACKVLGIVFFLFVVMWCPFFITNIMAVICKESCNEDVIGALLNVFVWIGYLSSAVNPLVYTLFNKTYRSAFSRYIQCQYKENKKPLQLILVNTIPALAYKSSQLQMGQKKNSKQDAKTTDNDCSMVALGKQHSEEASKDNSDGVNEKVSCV
T4 sequence (P34969 whole entry): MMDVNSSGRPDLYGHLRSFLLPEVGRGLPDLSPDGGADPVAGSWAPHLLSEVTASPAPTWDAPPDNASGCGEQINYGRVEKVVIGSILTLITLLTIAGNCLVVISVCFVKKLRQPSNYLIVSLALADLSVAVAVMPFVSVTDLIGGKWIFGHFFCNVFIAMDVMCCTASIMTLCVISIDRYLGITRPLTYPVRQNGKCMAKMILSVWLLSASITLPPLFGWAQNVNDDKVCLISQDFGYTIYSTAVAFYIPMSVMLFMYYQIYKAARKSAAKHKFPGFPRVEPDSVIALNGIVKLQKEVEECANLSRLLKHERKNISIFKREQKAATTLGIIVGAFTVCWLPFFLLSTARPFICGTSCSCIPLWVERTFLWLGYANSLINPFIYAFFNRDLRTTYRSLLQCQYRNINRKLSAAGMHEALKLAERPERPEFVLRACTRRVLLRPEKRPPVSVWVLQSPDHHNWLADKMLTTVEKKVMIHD
T5 sequence (P50406 whole entry): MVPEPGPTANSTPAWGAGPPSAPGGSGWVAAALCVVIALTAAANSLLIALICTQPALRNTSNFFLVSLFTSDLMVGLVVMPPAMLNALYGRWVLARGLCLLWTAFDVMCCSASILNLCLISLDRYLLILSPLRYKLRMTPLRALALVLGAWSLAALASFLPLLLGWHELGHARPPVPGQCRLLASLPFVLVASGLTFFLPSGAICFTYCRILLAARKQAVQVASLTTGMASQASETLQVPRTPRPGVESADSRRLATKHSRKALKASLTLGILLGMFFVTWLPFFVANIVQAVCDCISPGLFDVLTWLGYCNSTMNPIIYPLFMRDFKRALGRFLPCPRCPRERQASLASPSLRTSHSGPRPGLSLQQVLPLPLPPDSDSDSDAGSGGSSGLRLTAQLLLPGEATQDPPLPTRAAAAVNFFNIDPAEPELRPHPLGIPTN

SMILES	inhibition at 10 µM (5-HT2c)	inhibition at 10 µM (D1)	inhibition at 10 µM (hD4.2 receptor)	inhibition at 10 µM (hD2L receptor)	melting point	inhibition at 10 µM (5-HT7)	IC50 [1]	inhibition at 10 µM [1]	inhibition at 10 µM (hD3 receptor)	inhibition at 10 µM (5-HT2a)	inhibition at 10 µM (5-HT1a)	IC50 [1, 2]	5-HT6 affinity compared with known selective antagonists [1]
C[C@H](NC(=O)Oc1cccc(C2(C)C(=O)Nc3cc(Cl)cc(Cl)c3C2=O)c1)c1ccccc1 (stereo partly shown) [Example 26]	9.1%	50.5%	0.5%	26.5%	91 to 94 °C	12.7%	980 nM	70%	14.8%	38.1%	0%	–	–
COc1ccc(C2(C)C(=O)Nc3cc(Cl)cc(Cl)c3C2=O)cc1[N+](=O)[O-] (stereo not shown) [Example 21, 5,7-dichloro-3-(4-methoxy-3-nitro-phenyl)-3-methyl-1H-quinoline-2,4-dione]	10.8%	40.2%	0%	10.5%	255 to 256 °C	0%	–	73.7%	16.4%	16.3%	15.9%	1230 nM	–
COc1ccc(C2(C)C(=O)Nc3cc(N4CCN(C)CC4)cc(Cl)c3C2=O)cc1 (stereo not shown) [Example 46, 5-chloro-3-(4-methoxy-phenyl)-3-methyl-7-(4-methyl-piperazine-1-yl)-1H-quinoline-2,4-dione]	10.7%	16%	7.2%	30.4%	201 to 202 °C	17.8%	–	67.1%	16.7%	16.5%	25.4%	1460 nM	–
CC1(c2cccc(O)c2)C(=O)Nc2cc(Cl)cc(Cl)c2C1=O (stereo not shown) [Example 20, 3-(3-hydroxy-phenyl)-5,7-dichloro-3-methyl-1H-quinoline-2,4-dione]	4.7%	64.6%	0%	10.9%	248 °C (dec.)	29.2%	–	91.7%	13.2%	46.1%	0%	49 nM	almost same affinities as or better affinities than known selective antagonists
CC1(c2ccc([N+](=O)[O-])cc2)C(=O)Nc2cc(Cl)ccc2C1=O (stereo not shown) [Example 37, 7-chloro-3-methyl-3-(4-nitro-phenyl)-1H-quinoline-2,4-dione]	1.4%	49.2%	0%	8.3%	209 to 210 °C	21%	–	73.3%	10.5%	49.2%	10.4%	1000 nM	–
COc1cc(C2(C)C(=O)Nc3ccccc3C2=O)ccc1O (stereo not shown) [Example 31, 3-(4-hydroxy-3-methoxy-phenyl)-3-methyl-1H-quinoline-2,4-dione]	10.2%	37.1%	0%	9.2%	168 to 169 °C	16.4%	–	70.6%	9.8%	43.5%	31.2%	801 nM	–
CC1(c2ccc(Br)cc2)C(=O)Nc2cc(Cl)cc(Cl)c2C1=O (stereo not shown) [Example 18, 3-(4-bromo-phenyl)-5,7-dichloro-3-methyl-1H-quinoline-2,4-dione]	10.7%	37.7%	0%	16%	237 to 238 °C	7.8%	–	73.8%	12.5%	16.9%	8%	494 nM	–
CC1(c2ccccc2)C(=O)Nc2ccccc2C1=O (stereo not shown) [Example 2, 3-methyl-3-phenyl-1H-quinoline-2,4-dione]	30.6%	10.2%	0%	5.6%	194 to 196 °C	10.4%	–	73.2%	12.2%	8.4%	15%	1080 nM	–
CCN(CC)c1ccc(C2(C)C(=O)Nc3cc(Cl)cc(Cl)c3C2=O)cc1 (stereo not shown) [Example 42, 5,7-dichloro-3-(4-diethylamino-phenyl)-3-methyl-1H-quinoline-2,4-dione]	13.7%	38.7%	8.5%	15.7%	247 to 249 °C	10.1%	–	69.5%	25.3%	16.9%	6.5%	15 nM	almost same affinities as or better affinities than known selective antagonists
CN1CCN(c2ccc3c(c2)NC(=O)C(C)(c2ccc(N)cc2)C3=O)CC1 (stereo not shown) [Example 50, 3-(4-amino-phenyl)-3-methyl-7-(4-methyl-piperazine-1-yl)-1H-quinoline-2,4-dione]	15.4%	34.1%	0%	8.2%	265 to 267 °C	20.5%	–	74.5%	50.1%	21.5%	6.7%	942 nM	–
CC1(c2ccccc2)C(=O)Nc2cc(Br)cc(Br)c2C1=O (stereo not shown) [Example 4, 5,7-dibromo-3-methyl-3-phenyl-1H-quinoline-2,4-dione]	29.8%	23.7%	0%	3%	202 to 203 °C	13%	–	70.9%	15.8%	13.6%	11.7%	320 nM	–
CC1(c2cccc(OCc3ccccc3)c2)C(=O)Nc2cc(Cl)cc(Cl)c2C1=O (stereo not shown) [Example 19, 3-(3-benzyloxy-phenyl)-5,7-dichloro-3-methyl-1H-quinoline-2,4-dione]	0%	92.6%	0%	37.8%	201 to 203 °C	69.5%	–	74.9%	37.4%	67.3%	88.8%	134 nM	–
CC1(c2ccccc2)C(=O)Nc2cc(Cl)c(Cl)cc2C1=O (stereo not shown) [Example 9, 6,7-dichloro-3-methyl-3-phenyl-1H-quinoline-2,4-dione]	30.4%	26.2%	0%	8.2%	213 to 214 °C	10.8%	–	71.2%	10.8%	16.6%	45.2%	1060 nM	–
